According to publication PMC5107132 (European journal of pharmacology, 2016):

Test system: Wistar rats
Experiment: Spontaneous locomotor activity
Type: in vivo, rat
Conditions: 15 mg/kg i.p., 45 min

## C#Cc1ccc2c(c1)C(c1ccccc1F)=N[C@H](C)c1c(C(=O)NC)ncn1-2 [MP-III-022, (R)-8-Ethynyl-6-(2-fluorophenyl)-N,4-dimethyl-4H-benzo[f]imidazo[1,5-a][1,4]diazepine-3-carboxamide]
  Spontaneous locomotor activity, total distance traveled: slight hyperlocomotion
